Assays:
HeLa [1] = assay: Induction of cell cycle arrest in human HeLa cells assessed as cell debris incubated for 24 hrs by PI staining based flow cytometry analysis (reference value: 2.13%); format: functional
[2] = Toxicity in Swiss albino mouse implanted with mouse Ehrlich cells assessed as reduction in body weight gain at 10 mg/kg, iv administered once daily for 20 days relative to control; format: organism-based; set-up: scale not given: the % may be the effect or the level left; conditions: in vivo, 480 h, time 20 day
Ehrlich = assay: Antitumor activity against mouse Ehrlich cells implanted in Swiss albino mouse assessed as reduction in tumor volume at 10 mg/kg, iv administered once daily for 20 days relative to control; format: functional; set-up: scale not given: the % may be the effect or the level left; conditions: time 20 day
[3] = molecular target: Epidermal growth factor receptor (Homo sapiens, UniProt P00533); assay: Inhibition of EGFR (unknown origin) by fluorimetric assay
Epidermal growth factor receptor, sequence (P00533 whole entry): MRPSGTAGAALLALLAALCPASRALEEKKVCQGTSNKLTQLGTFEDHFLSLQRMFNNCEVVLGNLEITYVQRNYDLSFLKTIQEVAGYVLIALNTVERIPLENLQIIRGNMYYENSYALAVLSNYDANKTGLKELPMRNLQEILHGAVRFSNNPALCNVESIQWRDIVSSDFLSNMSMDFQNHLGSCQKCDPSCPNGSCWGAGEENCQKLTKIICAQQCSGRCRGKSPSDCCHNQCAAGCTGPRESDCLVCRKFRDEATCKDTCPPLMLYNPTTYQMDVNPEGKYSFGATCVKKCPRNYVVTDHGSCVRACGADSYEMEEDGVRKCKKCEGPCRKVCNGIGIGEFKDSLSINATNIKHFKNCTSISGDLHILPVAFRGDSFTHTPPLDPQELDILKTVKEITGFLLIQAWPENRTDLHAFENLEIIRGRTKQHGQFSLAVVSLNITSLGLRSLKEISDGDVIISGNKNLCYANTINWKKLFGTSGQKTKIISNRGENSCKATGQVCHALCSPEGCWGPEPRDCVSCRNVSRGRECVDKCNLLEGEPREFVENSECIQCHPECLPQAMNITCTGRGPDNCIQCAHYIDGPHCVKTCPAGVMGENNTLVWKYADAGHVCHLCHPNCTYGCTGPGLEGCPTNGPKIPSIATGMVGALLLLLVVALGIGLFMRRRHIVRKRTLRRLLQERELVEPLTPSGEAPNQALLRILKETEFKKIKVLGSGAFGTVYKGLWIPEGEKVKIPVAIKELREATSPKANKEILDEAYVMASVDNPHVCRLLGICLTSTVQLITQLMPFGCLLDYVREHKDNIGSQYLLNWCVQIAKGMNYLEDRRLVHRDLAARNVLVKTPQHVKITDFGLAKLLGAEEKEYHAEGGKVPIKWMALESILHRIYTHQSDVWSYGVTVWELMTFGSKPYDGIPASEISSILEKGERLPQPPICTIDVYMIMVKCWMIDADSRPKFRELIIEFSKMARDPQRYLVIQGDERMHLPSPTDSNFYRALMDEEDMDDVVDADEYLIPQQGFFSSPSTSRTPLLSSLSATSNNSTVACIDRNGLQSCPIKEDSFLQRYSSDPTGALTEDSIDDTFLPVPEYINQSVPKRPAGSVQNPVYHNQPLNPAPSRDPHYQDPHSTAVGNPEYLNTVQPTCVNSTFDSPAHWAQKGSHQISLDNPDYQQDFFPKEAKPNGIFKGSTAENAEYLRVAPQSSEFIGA

HeLa [4] = assay: Induction of apoptosis in human HeLa cells assessed as total apoptotic cells incubated for 24 hrs by annexin V-FITC/PI staining based flow cytometry analysis (reference value: 1.85%); format: functional
[5] = Selectivity index, ratio of IC50 for cytotoxicity against human WI-38 cells to IC50 for antiproliferative activity against human HEp-2 cells; format: toxicity, cell-based; conditions: WI-38 cells and HEp-2 cells, read-out: Ratio IC50
HeLa [6] = assay: Induction of cell cycle arrest in human HeLa cells assessed as accumulation of cells at pre-G1 phase incubated for 24 hrs by PI staining based flow cytometry analysis (reference value: 1.85%); format: functional
HepG2 = assay: Antiproliferative activity against human HepG2 cells assessed as inhibition of cell growth incubated for 24 hrs by MTT assay; format: functional, cell-based; conditions: HepG2, 24 h
HeLa [7] = assay: Induction of cell cycle arrest in human HeLa cells assessed as accumulation of cells at S phase incubated for 24 hrs by PI staining based flow cytometry analysis (reference value: 28.54%); format: functional
PC-3 = assay: Antiproliferative activity against human PC-3 cells assessed as inhibition of cell growth incubated for 24 hrs by MTT assay; format: functional, cell-based; conditions: PC-3, 24 h
[8] = Toxicity in Swiss albino mouse implanted with mouse Ehrlich cells assessed as mean body weight at 10 mg/kg, iv administered once daily for 20 days (reference value: 30 g); format: organism-based; conditions: in vivo, 480 h, time 20 day
MCF7 [9] = assay: Induction of cell cycle arrest in human MCF7 cells assessed as accumulation of cells at S phase incubated for 24 hrs by PI staining based flow cytometry analysis (reference value: 35.19%); format: functional
HeLa [10] = assay: Antiproliferative activity against human HeLa cells assessed as inhibition of cell growth incubated for 24 hrs by MTT assay; format: functional, cell-based
Dihydrofolate reductase = molecular target: T1, Dihydrofolate reductase (Homo sapiens, UniProt P00374); assay: Inhibition of DHFR (unknown origin) incubated for 2 to 5 mins by absorbance based analysis
T1 sequence (P00374 whole entry): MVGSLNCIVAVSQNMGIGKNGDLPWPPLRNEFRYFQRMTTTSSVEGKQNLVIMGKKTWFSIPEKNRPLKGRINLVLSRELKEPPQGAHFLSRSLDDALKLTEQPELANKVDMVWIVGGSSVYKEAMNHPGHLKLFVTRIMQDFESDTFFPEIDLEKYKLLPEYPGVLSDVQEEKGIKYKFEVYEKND

[11] = Selectivity index, ratio of IC50 for cytotoxicity against human WI-38 cells to IC50 for antiproliferative activity against human MCF7 cells; format: toxicity, cell-based; conditions: WI-38 cells and MCF7 cells, read-out: Ratio IC50
HEp-2 = assay: Antiproliferative activity against human HEp-2 cells assessed as inhibition of cell growth incubated for 24 hrs by MTT assay; format: functional, cell-based; conditions: HEp-2, 24 h
[12] = Selectivity index, ratio of IC50 for cytotoxicity against human WI-38 cells to IC50 for antiproliferative activity against human HepG2 cells; format: toxicity, cell-based; conditions: WI-38 cells and HepG2 cells, read-out: Ratio IC50
MCF7 [13] = assay: Induction of cell cycle arrest in human MCF7 cells assessed as accumulation of cells at pre-G1 phase incubated for 24 hrs by PI staining based flow cytometry analysis (reference value: 2.11%); format: functional
MCF7 [14] = assay: Induction of apoptosis in human MCF7 cells assessed as late apoptotic cells incubated for 24 hrs by annexin V-FITC/PI staining based flow cytometry analysis (reference value: 0.21%); format: functional
MCF7 [15] = assay: Induction of cell cycle arrest in human MCF7 cells assessed as cell aggregates incubated for 24 hrs by PI staining based flow cytometry analysis (reference value: 1.75%); format: functional
HeLa [16] = assay: Induction of apoptosis in human HeLa cells assessed as early apoptotic cells incubated for 24 hrs by annexin V-FITC/PI staining based flow cytometry analysis (reference value: 0.54%); format: functional
MCF7 [17] = assay: Induction of cell cycle arrest in human MCF7 cells assessed as accumulation of cells at G0/G1 phase incubated for 24 hrs by PI staining based flow cytometry analysis (reference value: 52.61%); format: functional
[18] = Selectivity index, ratio of IC50 for cytotoxicity against human WI-38 cells to IC50 for antiproliferative activity against human HCT-116 cells; format: toxicity, cell-based; conditions: WI-38 cells and HCT-116 cells, read-out: Ratio IC50
HeLa [19] = assay: Induction of cell cycle arrest in human HeLa cells assessed as accumulation of cells at G0/G1 phase incubated for 24 hrs by PI staining based flow cytometry analysis (reference value: 61.08%); format: functional
MCF7 [20] = assay: Induction of cell cycle arrest in human MCF7 cells assessed as cell debris incubated for 24 hrs by PI staining based flow cytometry analysis (reference value: 2.12%); format: functional
HeLa [21] = assay: Induction of cell cycle arrest in human HeLa cells assessed as cell aggregates incubated for 24 hrs by PI staining based flow cytometry analysis (reference value: 1.46%); format: functional
[22] = Selectivity index, ratio of IC50 for cytotoxicity against human WI-38 cells to IC50 for antiproliferative activity against human PC-3 cells; format: toxicity, cell-based; conditions: WI-38 cells and PC-3 cells, read-out: Ratio IC50
[23] = Selectivity index, ratio of IC50 for cytotoxicity against human WI-38 cells to IC50 for antiproliferative activity against human HeLa cells; format: toxicity, cell-based; conditions: WI-38 cells and HeLa cells, read-out: Ratio IC50
MCF7 [24] = assay: Induction of apoptosis in human MCF7 cells assessed as total apoptotic cells incubated for 24 hrs by annexin V-FITC/PI staining based flow cytometry analysis (reference value: 2.11%); format: functional
HeLa [25] = assay: Induction of apoptosis in human HeLa cells assessed as necrotic cells incubated for 24 hrs by annexin V-FITC/PI staining based flow cytometry analysis (reference value: 1.15%); format: functional
MCF7 [26] = assay: Induction of apoptosis in human MCF7 cells assessed as necrotic cells incubated for 24 hrs by annexin V-FITC/PI staining based flow cytometry analysis (reference value: 1.28%); format: functional
HeLa [27] = assay: Induction of cell cycle arrest in human HeLa cells assessed as accumulation of cells at G2/M phase incubated for 24 hrs by PI staining based flow cytometry analysis (reference value: 10.38%); format: functional
MCF7 [28] = assay: Induction of apoptosis in human MCF7 cells assessed as early apoptotic cells incubated for 24 hrs by annexin V-FITC/PI staining based flow cytometry analysis (reference value: 0.62%); format: functional
MCF7 [29] = assay: Antiproliferative activity against human MCF7 cells assessed as inhibition of cell growth incubated for 24 hrs by MTT assay; format: functional, cell-based; conditions: MCF7, 24 h
MCF7 [30] = assay: Induction of cell cycle arrest in human MCF7 cells assessed as accumulation of cells at G2/M phase incubated for 24 hrs by PI staining based flow cytometry analysis (reference value: 12.2%); format: functional
HeLa [31] = assay: Induction of apoptosis in human HeLa cells assessed as late apoptotic cells incubated for 24 hrs by annexin V-FITC/PI staining based flow cytometry analysis (reference value: 0.16%); format: functional
HCT-116 = assay: cells; conditions: Homo sapiens, HCT-116, 24 h
Description: Antiproliferative activity against human HCT-116 cells assessed as inhibition of cell growth incubated for 24 hrs by MTT assay

[32] = Cytotoxicity against human WI-38 cells assessed as inhibition of cell growth incubated for 24 hrs by MTT assay; format: toxicity, cell-based

**Q.** What does the source list for `CC(=O)Nc1nc(C(=O)NNC(=O)CCN2CCCCC2)cs1`?
**A.** Activity (HeLa [1]): 2.19%; Activity [2]: 18.3%; Activity (Ehrlich): 72.3%; IC50 [3]: 9.2 µM; Activity (HeLa [4]): 45.81%; selectivity ratio [5]: 5.24; Activity (HeLa [6]): 45.81%; IC50 (HepG2): 6.21 µM; Activity (HeLa [7]): 44.39%; IC50 (PC-3): 8.14 µM; Activity [8]: 29.4 g; Activity (MCF7 [9]): 38.66%; IC50 (HeLa [10]): 1.67 µM; IC50 (Dihydrofolate reductase): 0.262 µM; selectivity ratio [11]: 8.19; IC50 (HEp-2): 7.62 µM; selectivity ratio [12]: 6.43; Activity (MCF7 [13]): 36.22%; Activity (MCF7 [14]): 22.72%; Activity (MCF7 [15]): 2.19%; Activity (HeLa [16]): 14.01%; Activity (MCF7 [17]): 57.43%; selectivity ratio [18]: 3.37; Activity (HeLa [19]): 52.72%; Activity (MCF7 [20]): 1.46%; Activity (HeLa [21]): 1.55%; selectivity ratio [22]: 4.9; selectivity ratio [23]: 23.9; Activity (MCF7 [24]): 36.22%; Activity (HeLa [25]): 7.41%; Activity (MCF7 [26]): 5.19%; Activity (HeLa [27]): 2.89%; Activity (MCF7 [28]): 8.31%; IC50 (MCF7 [29]): 4.87 µM; Activity (MCF7 [30]): 3.91%; Activity (HeLa [31]): 24.39%; IC50 (HCT-116): 11.8 µM; IC50 at 24 h [32]: 39.9 µM
